We go through one substance from patent US20140213506A1, “THYMOSIN ALPHA PEPTIDE FOR PREVENTING, REDUCING THE SEVERITY OF, AND TREATING INFECTION” (priority 2011, published 2014).

For data set [1] the following is noted: cited from earlier work.
For data set [2] the following is noted: TA1 0.28 or 0.57 mg/kg s.c. with vaccine.
Method: The vaccine (either Agrippal influPozzi seasonal vaccine, non-adjuvanted, or Fluad, MF-59 adjuvanted) was administered via intramuscular injection to the right leg at a full human dose of 0.5 mL. TA1 (0.285 or 0.570 mg/kg/dose) was administered by the subcutaneous route at a dose volume that, using a scaling factor for ferret/human dosing, corresponding to approximate human doses of 3.2 or 6.4 mg/kg. Animals were observed twice daily for mortality, general health, and both local and systemic signs of toxicity and illness as well as behavior under the responsibility of a professional veterinarian. Body weights were recorded prior to dosing only.
The conditions of data set [3]: TA1 0.3-1.2 mg/kg/dose i.p. with Fluvirin.
For data set [4] the following is noted: cited from earlier work. This is another data set of the same source.
The conditions of data set [5]: doses as high as 800 times the recommended human dose; cited from earlier work.

No end group written: not given here.

For “Ac-SDAAVDTSSEITTKDLKEKKEVVEEAEN [TA1, (N-acetyl)-Ser-Asp-Ala-Ala-Val-Asp-Thr-Ser-Ser-Glu-11e-Thr-Thr-Lys-Asp-Leu-Lys-Glu-Lys-Lys-Glu-Val-Val-Glu-Glu-Ala-Glu-Asn-OH]”, in data set [1] (after injection of 3.2 mg of TA1 (about 40 μg/kg)), the Peak plasma levels result is recorded as “approximately 100 ng/ml”. Besides, in data set [1] (in vivo), the “half-life of TA1 in the circulation” value was “about 2 hours”. For the same substance, in data set [1] (subcutaneously injected TA1), the plasma half-life entry is “about two”. In data set [2], the “safety and tolerability, cage-side observations” value is “safe and well-tolerated”. Also, in data set [3], the “clinical/cageside observations and body weight effects” value was “no test article-related clinical/cageside observations or body weight effects”; the survival result is on record as “All animals survived until scheduled termination”. For the same substance, the “worsening of side effects in combination” value in data set [4] (TA1 combined with other agents such as interferon and chemotherapy) is recorded as “Nor has there been any worsening of side effects”. Besides, the drug-related side effects entry in data set [4] (more than 3,000 patients (adults, elderly, children; hepatitis B and C, primary immunodeficiency, cancers)) is reported as “virtually no drug-related side effects”. Further, the adverse clinical signs result in data set [5] is “no evidence of adverse clinical signs”.
